From ChEMBL document CHEMBL4130624, “Optimization of 1,4-Oxazine β-Secretase 1 (BACE1) Inhibitors Toward a Clinical Candidate” (J Med Chem, 2018)
In brackets after ≈: the same amount, converted by molar mass.

Key:
[1] = test system: Canis familiaris; assay: Antialzheimer activity in po dosed Beagle dog assessed as reduction in amyloid beta (1 to 40) levels measured after 1 hr post dose by ELISA; type: functional, organism-based, Canis lupus familiaris
[2] = Cmax in Beagle dog at 10 mg/kg, po administered as bolus dose by LC-MS/MS analysis; type: ADME, organism-based, Canis lupus familiaris; design: dose 10 mg/kg, route oral; settings: in vivo
[3] = Oral bioavailability in Beagle dog at 10 mg/kg administered as bolus dose by LC-MS/MS analysis; type: ADME, organism-based, Canis lupus familiaris; settings: in vivo
[4] = Fraction unbound in mouse plasma at 5 uM after 4.5 hrs by HPLC-MS/MS method based rapid equilibrium dialysis; type: ADME, cell-free
[5] = Cmax in female Beagle dog at 70 mg/kg, po measured after 1 month repeated dosing by LC-MS/MS analysis; settings: in vivo
[6] = test system: Mus musculus; assay: Systemic clearance in Swiss mouse at 2.5 mg/kg, iv administered as bolus dose by LC-MS/MS analysis relative to liver blood flow; type: ADME, organism-based; settings: in vivo
[7] = test system: Canis familiaris; assay: Toxicity in Beagle dog assessed as drug tolerability at 0.63 to 20 mg/kg, po qd for 1 day; type: organism-based, Canis lupus familiaris; settings: in vivo, 24 h
[8] = Clearance in Swiss mouse at 2.5 mg/kg, iv administered as bolus dose by LC-MS/MS analysis; type: ADME, organism-based; settings: in vivo

SMILES: C[C@]1(c2cc(NC(=O)c3ccc(C#N)cn3)ccc2F)N=C(N)CO[C@H]1C(F)(F)F
- fEC50 [1]: 0.065 µM
- Activity ([1]; Canis lupus familiaris): Dose-dependent effect
- EC50 ([1]; Canis lupus familiaris, Beagle, 1 h): 0.105 µg/mL (≈ 0.249 µM)
- Cmax [2]: 1090 nM
- bioavailability [3]: 71%
- fraction unbound at 4.5 h, 5 µM [4]: 0.23
- Cmax at 1 month [5]: 2080 ng/mL
- CL [6]: 50%
- Activity [7]: Non-Toxic
- clearance [8]: 69 mL/min/kg
